Measurements from US7745410B2, “Bladder tumor-targeting peptide and use thereof” (Kyungpook National University Industry-Academica …, priority 2006, dated 2010).
Positions of bridges follow the written chain, without caps; N, C: chain ends. No end group written: not given here. *: point of attachment. FITC = O=C1OC2(c3ccc(O)cc3Oc3cc(O)ccc32)c2ccc(NC(=S)*)cc21

Key:
[1] = tested on: malignant melanoma tissue; assay: In vivo targeting after tail vein injection in mouse with induced malignant melanoma; conditions: final 50 μM in blood, 2 hours
Description: k: microscopic photograph of malignant melanoma of mouse injected with the peptide according to the present invention and stained with H & E; and
l: fluorescence microscopic photograph of cancer tissue of mouse injected with the peptide according to the present invention and stained with DAPI; and
(§1) The FITC-peptide 1 was injected into the mouse, in which a bladder tumor induced, and into the normal mouse via the tail venous to a final concentration of 50 μM in the blood, followed by circulation for 2 hours. Additionally, to determine whether the peptide according to the present invention specifically targets the bladder tumor in vivo, a malignant melanoma was induced in a mouse (Hyochang Science), and the peptide according to the present invention was injected into the mouse in the same manner as described above. Then, the bladder was removed from each mouse to prepare a frozen section, which, in turn, was stained by H&E staining or cytokeratin staining. Each section was observed by using a fluorescence microscope.

bladder tumor tissue = assay: In vivo targeting after injection into the bladder via the urethra (BBN-induced bladder tumor); design: species or system rat; conditions: 50 μM injected into bladder via urethra, 30 minutes, FIG. 5
Excerpt: FIG. 5 is a set of photographs showing the binding specificity to bladder tumor tissue of the peptide according to the present invention having FITC attached thereto, after injecting the peptide into the mouse bladder in which a bladder tumor is induced, wherein the green fluorescence represents the peptide according to the present invention, and the red fluorescence represents an epithelial cell stained with cytokeratin;
(§2) First, 4 week-aged F344 rats (n=10) (Hyochang Science) were fed with water containing 0.05% of N-butyl-N-4-hydroxybutylnitrosoamine (BBN) for 8 weeks to induce a bladder tumor.
50 μM of FITC-CSNRDARRC peptide described in Example <2-2> was injected into the bladder of each of the mouse, in which a bladder tumor was induced, and a normal mouse via the urethra, followed by reaction for 30 minutes. Then, the bladder was removed from each mouse and a frozen section was provided. The frozen section was stained by H&E staining according to a method known to one skilled in the art. […] Then, 1:200 dilution of a secondary antibody, to which a red fluorescence material (Alexa red) was bonded, was allowed to react with the cells at room temperature for 1 hour, followed by treatment with a mounting solution containing DAPI. Next, the cells were observed by using a fluorescence microscope.

bladder tumor cells = assay: In vivo targeting after tail vein injection (BBN-induced bladder tumor); design: species or system rat; conditions: final 50 μM in blood
Excerpt: FIG. 6 is a set of photographs showing the in vivo targeting capability of the peptide according to the present invention, after injecting the peptide having FITC attached thereto into the tail venous vessel of a mouse in which a bladder tumor is induced, wherein the green fluorescence represents the peptide according to the present invention, and the red fluorescence represents an epithelial cell stained with cytokeratin;
as §2, §1

[2] = tested on: human bladder tumor tissue; assay: Binding of FITC-peptide to frozen tissue sections (fluorescence microscopy); conditions: 10 μM peptide, 4° C., 1 hour, FIG. 4
Description: FIG. 4 is a set of photographs showing the binding specificity to the frozen section of human bladder tumor cells of the peptide according to the present invention having FITC attached thereto, wherein the green fluorescence represents the peptide according to the present invention, and the blue fluorescence represents the nucleus stained with DAPI;
Next, 10 μM of the peptide, FITC-CSNRDARRC, was allowed to react with the tissues at 4° C. for 1 hour. As a control, a peptide (SEQ ID NO: 10; CDASRRNRC), which had the same number of amino acids as the peptide according to the present invention but included a randomly modified amino acid sequence between both terminal cystein residues, was used. After the reaction of each peptide, a mounting solution (molecular Probe) containing a nucleus staining reagent, DAPI (4′,6-diamidino-2-phenylindole), was treated on the surface of the slide according to the method known to one skilled in the art. Then, the slide was observed by using a fluorescence microscope.

[3] = tested on: cells separated from the urine of a patient suffering from bladder tumor; assay: Binding of FITC-peptide to cells collected from urine (fluorescence microscopy); format: cell-based, human; conditions: 4° C., 1 hour; FIG. 7
Description: FIG. 7 is a set of fluorescence microscopic photographs showing the binding specificity of the target peptide having FITC attached thereto to cells separated from the urine of a patient suffering from bladder tumor, wherein the green fluorescence represents the peptide according to the present invention, and the blue fluorescence represents the nucleus stained with DAPI;
Urine of a patient that was in the hospital for surgical operation on the bladder tumor was centrifuged with 1500 rpm at 4° C. for 10 minutes to collect cells. As a control, bladder cells, collected from the urine of a normal human in the same manner as described above, were used. Next, the collected cells were allowed to react with the FITC-peptide 1 described in Example <2-2> and the control peptide (SEQ ID NO: 10) at 4° C. for 1 hour. After staining the cells with DAPI, the cells were transferred onto a slide and observed with a fluorescence microscope. Meanwhile, the cells were stained with the PAP staining method (Papanicolau and Marshall, Science 101:519, 1945), currently used as a method for the diagnosis of bladder tumor, to observe the presence of tumor cells.

[4] = tested on: bladder tumor cells separated from the human bladder tissue; assay: Binding of phage clones to bladder tumor cells and normal bladder cells from patient tissue (phage titer); format: cell-based; conditions: phage clones of Example 1
Description: FIG. 3 is a graph showing the binding specificity of six positive phage clones to the bladder tumor cells separated from the human bladder tissue and to the normal bladder cells;
Bladder tumor cells were separated from fresh bladder tumor tissue obtained from six patients with a bladder tumor by transurethral resection of bladder tumor, according to a known method. The cells were measured for the specific binding of the six individual phage clones (SEQ ID NO: 1 to SEQ ID NO: 6) described in Example 1 to the tumor cells and compared their binding to that of the normal cells. First, bladder tumor tissue and normal bladder tissue were pulverized finely to provide cell suspensions, and the six phages (5×10^9 pfu) were allowed react with the cells at 4° C. for 2 hours. A non-recombinant phage, T7 415-1b phage, was used as a control phage. Next, tumor cells and the normal epithelial cells were separated from the cell suspensions formed from the tumor tissue and the normal tissue by using magnetic beads coated with epithelial cell antibodies, in the same manner as described in Example <1-2>. Then, phages were detected from the cells and measured for the titer of phages, in the same manner as described in Example <1-2>.

[5] = tested on: BBN-induced bladder tumor; assay: In vivo micro PET imaging after intravenous injection of radiolabeled peptides; design: species or system rat; conditions: 14 hours after intravenous injection; tumor-bearing F344 rats; 380 μCi peptide 1, 313 μCi control; FIG. 8
Description: For radioiodination, each of CSNRDARRC peptide (SEQ ID NO: 1) and CDASRRNRC control peptide (SEQ ID NO: 10) was added with a tyrosine residue at the N-terminus during synthesis. […] The synthetic peptide was labeled with [131I]NaI by using Iodo-bead (Pierce Biochemical Co., Rockford, Ill.). The bead was washed with phosphate-buffered saline (PBS), pH 7.2 and dried on filter paper for 5 min. The washed bead was added to a solution of [131I]NaI (100 MBq) in PBS. After shaking at RT for 5 min, the peptide solution (14 mg in 20 mL distilled water) was added to the [131I]NaI solution containing Iodo-bead. [131I]NaI (T1/2=[…]) was purchased from Korea Institute of Radiology and Science (KIRAMS; Seoul, Korea). The reaction was allowed to proceed for 15 min at RT by gentle shaking and then stopped by the removal of the bead out of the reaction tube. The 131I-incorporation yield measured by radio-TLC was 47% (silica, 10% ammonium acetate:methanol=30:70). […] The radiochemical purity of final solution was measured to be over 81.2%. […]
In contrast, uptake of the control peptide (313 μCi) was minimal (FIG. 8 D-F). These findings indicate that the radioactivity shown in rat bladder is not a non-specific one from urinary excretion of the radiolabeled peptides but a specific one from the uptake of the peptide by bladder tumor tissues.

Substance	detection of peptide in malignant melanoma tissue [1]	fluorescence in epithelial cells at the site where a bladder tumor was induced (bladder tumor tissue)	fluorescence in epithelial cells covering the normal bladder (bladder tumor tissue; normal animal)	detection of peptide in lung tissue of a normal mouse (bladder tumor cells; 2 hours)	detection of peptide in normal bladder cells (bladder tumor cells; 2 hours, normal animal)	targeting of bladder tumor cells after injection into the blood (bladder tumor cells; circulation 2 hours, FIG. 6)	binding to bladder tumor tissue [2]	fluorescence in control cells (urine of a normal human) [3]	fluorescence/binding in urine cells of the patient suffering from bladder tumor [3]	binding capability among the six phage clones [4]	uptake in bladder on micro PET images [5]
FITC-CSNRDARRC ({FITC}-CSNRDARRC; disulfide 1-9) [FITC-peptide 1, peptide 1 with FITC (fluorescein isothiocyanate) linked to its amino terminal]	not detected	green fluorescence was observed	no fluorescence was observed	not detected	not detected	targets the bladder tumor cells	bonded specifically	fluorescence was not detected	green fluorescence was observed	–	–
CSNRDARRC (disulfide 1-9; not fully specified (N-terminus)) [peptide 1]	–	–	–	–	–	–	–	–	–	highest binding capability	–
CDASRRNRC (YCDASRRNRC; disulfide 2-10; numbers in words are those of the source; also: 124I radiolabel) [control peptide, radioiodinated with added N-terminal tyrosine for PET, reference compound]	–	–	–	–	–	–	substantially showed no binding	–	could not be bonded	–	minimal
